Test results taken from US12233060B2, “Inhibitors of Ataxia-Telangiectasia Mutated and Rad3-related protein kinase (ATR) for use in methods of treating cancer” (THE INSTITUTE OF CANCER RESEARCH: ROYAL CANCER HOSPITAL, priority 2016, dated 2025).

How the values were obtained:
[1] = test system: HCT116 ARID1A isogenic cells and TOV21G cells; assay: Anaphase bridge analysis; assay type: cell-based, human; settings: 0.5 uM, 8 hours
Experimental: FIG. 5. ATRi effect on cell cycle progression, chromosomal instability, DNA damage and apoptosis. A. Barchart illustrating G2/M fraction in HCT116 ARID1A^+/+ and ARID1A^−/− cells synchronized in G1/early S phase by double thymidine block and released into fresh media containing DMSO or VX-970 (500 nM). The percentage of cells in G2/M was measured by FACS following PI staining. […] Cells were stained with DAPI. A minimum of 50 anaphases were scored in 3 biological replicate experiments. *p=0.023, Student's t-test. C. Bar chart illustrating frequency of anaphase bridges in TOV21G cells exposed to VX-970 (0.5 uM) or DMSO for 8 hours prior to fixation. Experiment performed as for (B). p=0.006 Student's t-test. D. Mitotic spread images from HCT116 ARID1A^+/+ and ARID1A^−/− cells following exposure to either DMSO or VX-970 (1 uM). Scale bar represents 20 um. E. Bar chart illustrating extent of chromosomal abnormalities in HCT116 ARID1A^+/+ and ARID1A^−/− cells exposed to VX-970 (1 uM). *p<0.05, Student's t-test. F. Western blot illustrating γH2AX in HCT116 ARID1A^+/+ and ARID1A^−/− cells exposed to VX-970 (0.5 uM) for the indicated time prior to cell lyses. G. Bar chart illustrating apoptotic fraction in cells exposed to increasing concentrations of VX-970 for 24 hours. Experiment as per FIG. 3I. H. Western blot illustrating PARP cleavage in HCT116 ARID1A^+/+ and ARID1A^−/− cells exposed to VX-970. […]

[2] = test system: Arid1a+/+ and Arid1a−/− mouse embryonic stem (ES) cells; assay: Clonogenic survival of mouse Arid1a isogenic ES cells; assay type: cell-based; settings: p<0.001 ANOVA
Experimental: FIG. 2. In vitro ARID1A/ATR synthetic lethality. A. Chemical structure of VX-970. B. Western blot of ARID1A in human ARID1A isogenic HCT116 cells. C. Image of colonies in 6 well-plate clonogenic assay. HCT116 ARID1A isogenic (^+/+ and ^−/−) cell lines were exposed to increasing concentrations of the VE-821 (0, 0.1, 1 uM) and VX-970 (0, 0.01, 0.05 uM) for 14 days. D and E. Dose response clonogenic survival curve of HCT116 ARID1A isogenic (^+/+ and ^−/−) cell lines exposed to increasing concentrations of the VE-821 and VX-970 for 14 days. Error bars represent SD from triplicate experiments, ANOVA p-value of <0.0001. F. Area under curve (AUC) box whisker comparison plot for human tumor cell lines exposed to VX-970 for five days. ARID1A wild type tumor cell lines (n=15) were compared to ARID1A mutant cell lines (n=9). Student's t-test p=0.00594. G. Dose response clonogenic survival curve of mouse Arid1a isogenic ES cell lines. Experiment was performed as per (C). Error bars represent SD from triplicate experiments, ANOVA p value of <0.0001. H. Western blot of Arid1a protein expression in mouse ES Arid1a isogenic cells. […]
Short-term survival assays were performed in 384-well plates. […] Drug was added 24 h after seeding and cells were continuously exposed to the drug for five days, after which cell viability was estimated using CellTitre-Glo luminescence (Promega). […] Colonies were counted manually. […]

HCC1143 and HeLa cells = assay: Surviving fraction after five days VX-970 with SMARCA4 or ARID1A siRNA; assay type: cell-based, human; settings: five days exposure
Experimental: FIG. 6. BAF complex deficiency causes sensitivity to ATR inhibition. A. Schematic of BAF complex composition in human cells. B. VX-970 dose response curves from HCT116 cells transfected with siRNA targeting ARID1B or SMARCA4. 48 hours after transfection cells were exposed to VX-970 for 5 days. Error bars represent SD from triplicate experiments. p<0.0001, ANOVA for siARID1B and siSMARCA4 vs. siCON. C. Western blots illustrating ARID1B and SMARCA4 silencing in experiment (B). D. VX-970 dose response curves from four OCCC cell lines, 3 SMARCA4 wildtype (blue; RMG1, KK and ES2) and 1 SMARCA4 mutant (red; TOV112D). E. Bar chart illustrating surviving fraction after five days VX-970 exposure in HCC1143 and He1a cells transfected with siRNA targeting either SMARCA4 or ARID1A *p<0.05 by Student's t-test compared to siCon. F. Western blot illustrating level of chromatin bound TOP2A in HCT116 cells transfected siRNA targeting ARID1A, ARID1B or SMARCA4. Cells were analysed 48 hours after transfection. G. A model for the proposed mechanism driving the sensitivity of ARID1A-deficient cells to ATRi. Loss of function genomic alterations to ARID1A (or ARID1B/SMARCA4) lead to dysfunction of the BAF complex. This in turn causes decreased binding of TOP2A to chromatin, reducing the efficiency of chromosomal decatenation. […]

CNCc1ccc(-c2cc(-c3nc(-c4ccc(S(=O)(=O)C(C)C)cc4)cnc3N)on2)cc1 [VX-970, 5-[4-(Isopropylsulfonyl)phenyl]-3-(3-{4-[(methylamino)methyl]phenyl}-1,2-oxazol-5-yl)-2-pyrazinamine]
frequency of anaphase bridges [1]: increased level of anaphase bridges | selective targeting of Arid1a−/− ES cells in clonogenic assays [2]: selectively targeted Arid1a^−/− ES cells | VX-970 sensitivity caused by SMARCA4 silencing vs ARID1A siRNA (HCC1143 and HeLa cells): comparable to that caused by ARID1A siRNA
